Reference: patent US10874637B2, “Methods and pharmaceutical compositions for the treatment of neurodegeneration with brain iron accumulation” (INSERM (Institut National de la Santé et de la Recherche …, priority 2016, dated 2020)
“Also recorded” adds a separate entry of the source.

Tests used:
[1] = test system: iron amount; details: treatment increasing TfR1 palmitoylation; cited from earlier work
[2] = test system: TfR1; assay: TfR1 palmitoylation assay in cultured skin fibroblasts (fatty acyl exchange chemistry); type: cell-based, human; details: control and NBIA fibroblasts, 25 μM artesunate for 48 h
Description: Skin fibroblasts were isolated from patients 1-2 and from four NBIA patients carrying biallelic PANK2, PLA2G6, C19ORF12 and FA2H mutations (Supplementary Table 2). Fibroblasts were grown in DMEM (Life technologies) medium supplemented with 10% fetal beef serum (FBS), 2 mM L-glutamine, 2.5 mM pyruvate, 100 μg/ml streptomycin, 100 U/ml penicillin at 37° C. For treatment with ferric ammonium citrate (FAC), 90% confluent cells were incubated for 72 h with or without 100 μM FAC in serum-free DMEM (i.e. Tf free). HeLa cells were grown in the same medium. TfR1 palmitoylation in cultured skin fibroblasts was modified from^15. Briefly, cells were lysed on ice in a DTT-free cell lysis buffer and endogenous TfR1 was immunoprecipitated with mouse anti-TfR1 antibody (Zymed) with protein G magnetic beads (Biorad). After washing with PBS, beads were incubated overnight with 50 mM N-ethylmaleimide (NEM) at 4° C., washed 3 times with PBS and then incubated with 1 M hydroxylamine (HA) at room temperature for 2 hours. After three washes, the beads were incubated with 50 mM HPDP-Biotin (Thermo) in dark for 2 hours. Biotin-labeled TfR1 level was determined by immunoblotting in non-reducing conditions using a goat anti-biotin antibody (Thermo) while immunoblotting with rabbit anti-TfR1 antibody (Abcam) was used as loading control.

[3] = test system: ferritin (FTH); assay: Western blot of ferritin (FTH) steady state levels in fibroblasts; type: cell-based, human; details: control and NBIA fibroblasts, artesunate treatment (25 μM, 48 h)
Description: Skin fibroblasts were isolated from patients 1-2 and from four NBIA patients carrying biallelic PANK2, PLA2G6, C19ORF12 and FA2H mutations (Supplementary Table 2). Fibroblasts were grown in DMEM (Life technologies) medium supplemented with 10% fetal beef serum (FBS), 2 mM L-glutamine, 2.5 mM pyruvate, 100 μg/ml streptomycin, 100 U/ml penicillin at 37° C. For treatment with ferric ammonium citrate (FAC), 90% confluent cells were incubated for 72 h with or without 100 μM FAC in serum-free DMEM (i.e. Tf free). HeLa cells were grown in the same medium. Cultured skin fibroblasts or HeLa cells were harvested on ice by scraping in reducing or non-reducing cell lysis buffer. SDS-PAGE was performed on whole-cell protein extracts. Immunodetections were performed in PBS with 5% milk, 0.05 Tween20 (SIGMA) using the following antibodies: rabbit anti-CRAT (HPA022815, Sigma), rabbit anti-ACOT8 (SAB4500009 SIGMA), mouse anti-REPS1 (ab69221), mouse anti-SOD1 (ab86454), mouse anti-TfR1 (Zymed 136890), rabbit anti-ferritin (ab75973), rabbit anti-IRP1 (ab126595), rabbit anti-IRP2 (ab80339), mouse anti-GRIM19 (ab110240), rabbit anti-catalase (ab16731), rabbit anti-FBXLS (ab140175), rabbit anti-LC3B (ab51520) and mouse anti-actin antibodies (ab8226). […]

[4] = test system: liver and ovarian cancer; details: via induction of TfR1 palmitoylation and reduction of its cell-surface levels; cited from earlier work

Compound | iron amount [1] | TfR1 palmitoylation [2] | ferritin (FTH) steady state levels (indicator of iron content) [3] | liver and ovarian cancer growth [4]
dihydroartesunate | reduces iron amount |  |  | 
C[C@H]1[C@H](OC(=O)CCC(=O)O)O[C@@H]2O[C@@]3(C)CC[C@H]4[C@H](C)CC[C@@H]1[C@@]24OO3 [artesunate, (3R,5aS,6R,8aS,9R,10S,12R,12aR)-Decahydro-3,6,9-trimethyl-3,12-epoxy-12H-pyrano [4,3-j]-1,2-benzodioxepin-10-ol, hydrogen succinate] |  | enhanced TfR1 palmitoylation; also recorded: improved TfR1 palmitoylation | decreased ferritin steady state level | inhibit liver and ovarian cancer growth
